Experiments:
Type in all cases: biochemical
GSK-3β, (AA 1-420) = GSK-3β, (AA 1-420) (Homo sapiens, UniProt P49841); assay: GSK-3 inhibition assay, coupled enzyme system; details: 20 μM ATP, 300 μM peptide, 20 nM GSK-3b, 30° C.; read-out: Ki values (GSK3)
Method in brief: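 Pyruvate kinase/lactate dehydrogenase-coupled NADH assay with 20 nM enzyme, 20 μM ATP and 300 μM peptide in HEPES pH 7.5, 1.5% DMSO, 30° C. Compound (0.002–30 μM, 12-point) preincubated 10 min before ATP start; rates over 10 min gave Ki.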

SYK = SYK (Homo sapiens, UniProt P43405); assay: SYK enzyme assay, coupled enzyme assay; details: 200 μM ATP, 4 μM poly Gly-Tyr peptide, 30° C.
Experimental: Compounds were screened for their ability to inhibit SYK using a standard coupled enzyme assay (Fox et al., Protein Sci. 1998, 7, 2249). Reactions were carried out in 100 mM HEPES (pH 7.5), 10 mM MgCl2, 25 mM NaCl, 1 mM DTT and 1.5% DMSO. Final substrate concentrations in the assay were 200 μM ATP (Sigma chemical Co.) and 4 μM poly Gly-Tyr peptide (Sigma Chemical Co.). Assays were carried out at 30° C. and 200 nM SYK. Final concentrations of the components of the coupled enzyme system were 2.5 mM phosphoenolpyruvate, 300 μM NADH, 30 μg/ml pyruvate kinase and 10 μg/ml lactate dehydrogenase.
An assay stock buffer solution was prepared containing all of the reagents listed above, with the exception of SYK, DTT, and the test compound of interest of the present invention. 56 μl of the test reaction was placed in a 96 well plate followed by the addition of 1 μl of 2 mM DMSO stock containing the test compound of the present invnetion (final compound concentration 30 μM). The plate was pre-incubated for ˜10 minutes at 30° C. and the reaction initiated by the addition of 10 μl of enzyme (final concentration 25 nM). Rates of reaction were obtained using a BioRad Ultramark plate reader (Hercules, Calif.) over a 5 minute read time at 30° C., and Ki values for the compounds of the present invention were determined according to standard methods.

c-Met = c-Met (Homo sapiens, UniProt P08581); assay: Ki determination for the inhibition of c-Met, coupled enzyme system; details: 200 μM ATP, 10 μM polyGluTyr, 80 nM c-Met, 30° C.
Method in brief: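 Coupled pyruvate kinase/lactate dehydrogenase NADH assay with 80 nM c-Met, 200 μM ATP, 10 μM polyGluTyr in pH 7.5 HEPES, 1.5% DMSO at 30° C. Compound (0.006–12.5 μM final, 12-point) preincubated 10 min; ATP started reaction, rates read over 10 min; Ki derived from rate versus inhibitor concentration.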

GSK-3β, (AA 1-420), sequence (P49841 whole entry, the tested form may be a part): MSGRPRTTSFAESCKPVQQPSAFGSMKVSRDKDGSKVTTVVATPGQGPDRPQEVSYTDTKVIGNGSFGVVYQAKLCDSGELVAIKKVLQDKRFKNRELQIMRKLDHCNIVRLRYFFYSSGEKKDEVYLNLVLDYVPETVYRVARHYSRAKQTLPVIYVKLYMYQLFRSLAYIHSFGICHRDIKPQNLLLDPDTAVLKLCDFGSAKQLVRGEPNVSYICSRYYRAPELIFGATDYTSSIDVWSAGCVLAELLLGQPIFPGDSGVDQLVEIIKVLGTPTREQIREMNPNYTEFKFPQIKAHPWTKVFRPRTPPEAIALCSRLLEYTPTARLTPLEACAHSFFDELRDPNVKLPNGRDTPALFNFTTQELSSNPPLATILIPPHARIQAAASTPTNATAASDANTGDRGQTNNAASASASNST
c-Met, sequence (P08581 25-1390): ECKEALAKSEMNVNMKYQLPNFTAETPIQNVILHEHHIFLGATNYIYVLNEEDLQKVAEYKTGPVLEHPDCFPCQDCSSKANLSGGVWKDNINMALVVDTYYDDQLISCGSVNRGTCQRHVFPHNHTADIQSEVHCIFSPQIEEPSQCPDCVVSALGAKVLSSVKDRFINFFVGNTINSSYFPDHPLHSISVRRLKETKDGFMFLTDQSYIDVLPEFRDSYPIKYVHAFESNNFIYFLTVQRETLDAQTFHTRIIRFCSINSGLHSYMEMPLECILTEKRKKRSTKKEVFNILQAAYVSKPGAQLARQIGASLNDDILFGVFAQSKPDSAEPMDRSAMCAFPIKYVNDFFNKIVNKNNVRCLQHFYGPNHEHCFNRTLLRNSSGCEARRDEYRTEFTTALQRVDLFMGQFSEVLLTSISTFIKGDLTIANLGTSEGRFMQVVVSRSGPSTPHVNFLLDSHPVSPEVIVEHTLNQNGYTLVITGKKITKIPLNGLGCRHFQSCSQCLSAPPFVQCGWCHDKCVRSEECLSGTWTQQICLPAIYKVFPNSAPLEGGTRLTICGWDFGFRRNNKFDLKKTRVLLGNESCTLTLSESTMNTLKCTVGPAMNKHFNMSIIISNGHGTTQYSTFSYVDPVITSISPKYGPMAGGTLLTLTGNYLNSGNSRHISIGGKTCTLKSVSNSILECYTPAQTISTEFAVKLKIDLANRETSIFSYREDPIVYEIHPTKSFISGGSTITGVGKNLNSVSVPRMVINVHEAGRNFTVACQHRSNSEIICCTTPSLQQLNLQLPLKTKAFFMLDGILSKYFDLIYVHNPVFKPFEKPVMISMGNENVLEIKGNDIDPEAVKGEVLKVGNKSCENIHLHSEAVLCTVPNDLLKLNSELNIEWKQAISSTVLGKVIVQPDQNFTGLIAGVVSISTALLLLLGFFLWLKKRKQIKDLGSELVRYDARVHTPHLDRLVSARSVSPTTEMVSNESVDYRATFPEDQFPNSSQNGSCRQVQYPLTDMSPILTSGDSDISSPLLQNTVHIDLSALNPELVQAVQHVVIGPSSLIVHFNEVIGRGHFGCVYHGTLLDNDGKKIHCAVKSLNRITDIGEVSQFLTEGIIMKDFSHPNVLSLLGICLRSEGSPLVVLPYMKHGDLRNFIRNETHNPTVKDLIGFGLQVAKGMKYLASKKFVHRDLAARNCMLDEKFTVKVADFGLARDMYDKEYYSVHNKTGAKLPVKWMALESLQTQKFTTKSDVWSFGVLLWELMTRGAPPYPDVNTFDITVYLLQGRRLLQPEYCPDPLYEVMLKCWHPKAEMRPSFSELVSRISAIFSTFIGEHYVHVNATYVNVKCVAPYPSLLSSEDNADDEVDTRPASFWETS

| Compound | Ki (GSK-3β, (AA 1-420)) | Ki (SYK) | Ki (c-Met) |
| --- | --- | --- | --- |
| Fc1cccc(-c2cnoc2-c2c[nH]c3ncccc23)c1F [Compound 1, 3-[4-(2,3-Difluoro-phenyl)-isoxazol-5-yl]-1H-pyrrolo[2,3-b]pyridine] | 1000 to 12500 nM | 200 to 1000 nM | < 200 nM |
| COc1cnc2[nH]cc(-c3oncc3-c3cccc(F)c3F)c2c1 [Compound 38, 3-[4-(2,3-Difluoro-phenyl)-isoxazol-5-yl]-5-methoxy-1H-pyrrolo[2,3-b]pyridine] | 200 to 1000 nM | 1000 to 12500 nM | < 200 nM |
| Fc1c(Cl)cccc1-c1cnoc1-c1c[nH]c2ncccc12 [Compound 42, 3-[4-(3-Chloro-2-fluoro-phenyl)-isoxazol-5-yl]-1H-pyrrolo[2,3-b]pyridine] | 1000 to 12500 nM | 1000 to 12500 nM | < 200 nM |
| CC(=O)Nc1ccc(-c2cnc3[nH]cc(-c4oncc4-c4cccc(F)c4F)c3c2)cc1 [Compound 95, N-(4-{3-[4-(2,3-Difluoro-phenyl)-isoxazol-5-yl]-1H-pyrrolo[2,3-b]pyridin-5-yl}-phenyl)-acetamide] | 1000 to 12500 nM |  | < 200 nM |
| COc1cncc(-c2cnc3[nH]cc(-c4oncc4-c4cccc(F)c4F)c3c2)c1 [Compound 96, 3-[4-(2,3-Difluoro-phenyl)-isoxazol-5-yl]-5-(5-methoxy-pyridin-3-yl)-1H-pyrrolo[2,3-b]pyridine] | 200 to 1000 nM |  | < 200 nM |
| CS(=O)(=O)n1ccc2cc(-c3cnc4[nH]cc(-c5oncc5-c5cccc(F)c5F)c4c3)cnc21 [Compound 97, 3′-[4-(2,3-Difluoro-phenyl)-isoxazol-5-yl]-1-methanesulfonyl-1H, 1′H-[5,5′]bi[pyrrolo[2,3-b]pyridinyl]] | < 200 nM |  | < 200 nM |
| CNc1ccc2c(-c3oncc3-c3cccc(F)c3F)c[nH]c2n1 [Compound 102, {3-[4-(2,3-Difluoro-phenyl)-isoxazol-5-yl]-1H-pyrrolo[2,3-b]pyridin-6-yl}-methyl-amine] | 1000 to 12500 nM |  | < 200 nM |
| COC(=O)c1cnc2[nH]cc(-c3oncc3-c3cccc(F)c3F)c2c1 [Compound 105, 3-[4-(2,3-Difluoro-phenyl)-isoxazol-5-yl]-1H-pyrrolo[2,3-b]pyridine-5-carboxylic acid methyl ester] | 200 to 1000 nM |  | < 200 nM |
| Fc1cccc(-n2cnnc2-c2c[nH]c3ncc(-c4ccc(CN5CCOCC5)cc4)cc23)c1F [Compound 109, 3-[4-(2,3-Difluoro-phenyl)-4H-[1,2,4]triazol-3-yl]-5-(4-morpholin-4-ylmethyl-phenyl)-1H-pyrrolo[2,3-b]pyridine] | < 200 nM |  | < 200 nM |
| Fc1cccc(-n2cnnc2-c2c[nH]c3ncc(-c4cccnc4)cc23)c1F [Compound 113, 3-[4-(2,3-Difluoro-phenyl)-4H-[1,2,4]triazol-3-yl]-5-pyridin-3-yl-1H-pyrrolo[2,3-b]pyridine] | < 200 nM |  | < 200 nM |
| Fc1cccc(-n2cnnc2-c2c[nH]c3ncc(-c4ccc(N5CCC[C@H]5CN5CCCC5)nc4)cc23)c1F [Compound 115, 3-[4-(2,3-Difluoro-phenyl)-4H-[1,2,4]triazol-3-yl]-5-[6-(2-pyrrolidin-1-ylmethyl-pyrrolidin-1-yl)-pyridin-3-yl]-1H-pyrrolo[2,3-b]pyridine] | 200 to 1000 nM |  | < 200 nM |
| CN1CCCN(c2ccc(-c3cnc4[nH]cc(-c5nncn5-c5cccc(F)c5F)c4c3)cn2)CC1 [Compound 117, 3-[4-(2,3-Difluoro-phenyl)-4H-[1,2,4]triazol-3-yl]-5-[6-(4-methyl-[1,4]diazepan-1-yl)-pyridin-3-yl]-1H-pyrrolo [2,3-b]-pyridine] | 200 to 1000 nM |  | < 200 nM |
| Fc1cccc(-n2cnnc2-c2c[nH]c3ncc(-c4ccc(N5CCCC5)nc4)cc23)c1F [Compound 118, 3-[4-(2,3-Difluoro-phenyl)-4H-[1,2,4]triazol-3-yl]-5-(6-pyrrolidin-1-yl-pyridin-3-yl)-1H-pyrrolo[2,3-b]pyridine] | 200 to 1000 nM |  | < 200 nM |
| Fc1cccc(-c2cnoc2-c2c[nH]c3ncc(C4=CCC(NCc5ccccc5)CC4)cc23)c1F (stereo not shown) [Compound 136, Benzyl-(4-{3-[4-(2,3-difluoro-phenyl)-isoxazol-5-yl]-1H-pyrrolo[2,3-b]pyridin-5-yl}-cyclohex-3-enyl)-amine] | 200 to 1000 nM |  | < 200 nM |
| NC1CC=C(c2cnc3[nH]cc(-c4oncc4-c4cccc(F)c4F)c3c2)CC1 (stereo not shown) [Compound 137, 4-{3-[4-(2,3-Difluoro-phenyl)-isoxazol-5-yl]-1H-pyrrolo [2,3-b]pyridin-5-yl}-cyclohex-3-enylamine] | < 200 nM |  | < 200 nM |
| CN(C)C1CC=C(c2cnc3[nH]cc(-c4oncc4-c4cccc(F)c4F)c3c2)CC1 (stereo not shown) [Compound 138, (4-{3-[4-(2,3-Difluoro-phenyl)-isoxazol-5-yl]-1H-pyrrolo[2,3-b]pyridin-5-yl}-cyclohex-3-enyl)-dimethyl-amine] | < 200 nM |  | < 200 nM |
| Fc1cccc(-c2cnoc2-c2c[nH]c3ncc(C4=CCC(N5CCOCC5)CC4)cc23)c1F (stereo not shown) [Compound 139, 3-[4-(2,3-Difluoro-phenyl)-isoxazol-5-yl]-5-(4-morpholin-4-yl-cyclohex-1-enyl)-1H-pyrrolo[2,3-b]pyridine] | < 200 nM |  | < 200 nM |
| O=c1[nH]ccc2c(-c3oncc3-c3cccc(F)c3F)c[nH]c12 [Compound 145, 3-[4-(2,3-Difluoro-phenyl)-isoxazol-5-yl]-1,6-dihydro-pyrrolo[2,3-c]pyridin-7-one] | 200 to 1000 nM |  | 1000 to 12500 nM |

Second part, the compound after the results:

| Ki (GSK-3β, (AA 1-420)) | Ki (SYK) | Ki (c-Met) | Compound |
| --- | --- | --- | --- |
| 200 to 1000 nM | 1000 to 12500 nM | < 200 nM | Fc1cccc(-c2cnoc2-c2c[nH]c3ncc(Br)cc23)c1F [Compound 37, 5-Bromo-3-[4-(2,3-difluoro-phenyl)-isoxazol-5-yl]-1H-pyrrolo[2,3-b]pyridine] |
| 200 to 1000 nM | 200 to 1000 nM | < 200 nM | Oc1cnc2[nH]cc(-c3oncc3-c3cccc(F)c3F)c2c1 [Compound 43, 3-[4-(2,3-Difluoro-phenyl)-isoxazol-5-yl]-1H-pyrrolo[2,3-b]pyridin-5-ol] |
|  | 1000 to 12500 nM | < 200 nM | Fc1cccc(-c2cnoc2-c2c[nH]c3ncc(-c4ccccn4)cc23)c1F [Compound 73, 3-(4-(2,3-Difluoro-phenyl)-isoxazol-5-yl)-5-pyridin-2-yl-1H-pyrrolo[2,3-b]pyridine] |
| 200 to 1000 nM |  | < 200 nM | CN1CCN(Cc2ccc(-c3cnc4[nH]cc(-c5oncc5-c5cccc(F)c5F)c4c3)cc2)CC1 [Compound 94, 3-[4-(2,3-Difluoro-phenyl)-isoxazol-5-yl]-5-[4-(4-methyl-piperazin-1-ylmethyl)-phenyl]-1H-pyrrolo[2,3-b]pyridine] |
| 200 to 1000 nM |  | < 200 nM | CN1CCN(c2ccc(-c3cnc4[nH]cc(-c5nncn5-c5cccc(F)c5F)c4c3)cc2)CC1 [Compound 110, 3-[4-(2,3-Difluoro-phenyl)-4H-[1,2,4]triazol-3-yl]-5-[4-(4-methyl-piperazin-1-yl)-phenyl]-1H-pyrrolo[2,3-b]pyridine] |
| 200 to 1000 nM |  | < 200 nM | CN1CCN(c2ccc(-c3cnc4[nH]cc(-c5nncn5-c5cccc(F)c5F)c4c3)cn2)CC1 [Compound 112] |
| < 200 nM |  | < 200 nM | Fc1cccc(-n2cnnc2-c2c[nH]c3ncc(-c4ccncc4)cc23)c1F [Compound 114, 3-[4-(2,3-Difluoro-phenyl)-4H-[1,2,4]triazol-3-yl]-5-pyridin-4-yl-1H-pyrrolo[2,3-b]pyridine] |
| 200 to 1000 nM |  | < 200 nM | OC1CCN(c2ccc(-c3cnc4[nH]cc(-c5nncn5-c5cccc(F)c5F)c4c3)cn2)CC1 [Compound 116, 5′-{3-[4-(2,3-Difluoro-phenyl)-4H-[1,2,4]triazol-3-yl]-1H-pyrrolo[2,3-b]pyridin-5-yl}-3,4,5,6-tetrahydro-2H-[1,2′]bi-pyridinyl-4-ol] |
| 200 to 1000 nM |  | < 200 nM | CN(C)CCNc1ccc(-c2cnc3[nH]cc(-c4nncn4-c4cccc(F)c4F)c3c2)cn1 [Compound 119, N′-(5-{3-[4-(2,3-Difluoro-phenyl)-4H-[1,2,4]triazol-3-yl]-1H-pyrrolo[2,3-b]pyridin-5-yl}-pyridin-2-yl)-N,N-dimethyl-ethane-1,2-diamine] |
| < 200 nM |  | < 200 nM | CS(=O)(=O)NC1CC=C(c2cnc3[nH]cc(-c4oncc4-c4cccc(F)c4F)c3c2)CC1 (stereo not shown) [Compound 140, N-(4-{3-[4-(2,3-Difluoro-phenyl)-isoxazol-5-yl]-1H-pyrrolo[2,3-b]pyridin-5-yl}-cyclohex-3-enyl)-methanesulfonamide] |

— patent US7446199B2, “Compositions useful as inhibitors of protein kinases” (Vertex Pharmaceuticals Incorporated, priority 2003, dated 2008)
